target: T1, TBK1 (Homo sapiens, UniProt Q9UHD2); assay: ADP-Glo Kinase Assay, inhibition activity on TBK1; assay type: biochemical
T1 construct: purchased Promega (Invitrogen is also named in the same bracket) V4158; PR8031B; V3991 (not assigned to the two kinases)
T1 sequence (Q9UHD2 1-729): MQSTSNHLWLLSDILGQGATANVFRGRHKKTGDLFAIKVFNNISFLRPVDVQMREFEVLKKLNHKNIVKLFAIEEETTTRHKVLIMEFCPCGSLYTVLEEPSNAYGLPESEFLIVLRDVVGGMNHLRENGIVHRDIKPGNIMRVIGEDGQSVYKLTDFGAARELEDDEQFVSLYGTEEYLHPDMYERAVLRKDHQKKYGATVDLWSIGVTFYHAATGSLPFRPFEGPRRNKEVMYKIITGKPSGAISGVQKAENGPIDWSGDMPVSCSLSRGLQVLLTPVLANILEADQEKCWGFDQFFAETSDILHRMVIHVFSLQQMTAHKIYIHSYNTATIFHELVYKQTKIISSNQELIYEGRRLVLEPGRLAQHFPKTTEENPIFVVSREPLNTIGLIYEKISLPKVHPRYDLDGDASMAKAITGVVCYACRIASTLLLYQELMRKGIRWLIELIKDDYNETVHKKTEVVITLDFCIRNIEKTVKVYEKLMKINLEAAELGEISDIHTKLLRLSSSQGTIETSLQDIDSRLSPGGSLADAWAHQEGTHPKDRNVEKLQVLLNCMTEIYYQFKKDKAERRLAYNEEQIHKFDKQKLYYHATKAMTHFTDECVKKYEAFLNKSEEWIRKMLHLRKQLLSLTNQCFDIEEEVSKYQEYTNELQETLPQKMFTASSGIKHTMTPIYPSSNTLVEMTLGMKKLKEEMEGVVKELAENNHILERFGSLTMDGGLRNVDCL
Method: Inhibition activities on IKKϵ and TBK1 were evaluated using the compounds of Examples 1 to 250.
The inhibition activities on IKKϵ and TBK1 were measured by a luminometer, IKKϵ/TBK1 Kinase Enzyme System (Promega, Ca# V4158; Invitrogen, PR8031B, Promega, Ca# V3991) and ADP-Glo Kinase Assay using ADP-Glo™ Kinase Analysis Kit (Promega, Ca# V9101) and a kinase reaction buffer [40 mM Tris(pH 7.5), 20 mM MgCl2, 0.1 mg/mL BSA] in accordance with the manufacturer's protocol.

| IC50 | SMILES |
| --- | --- |
| 0.73 nM | CC(C)NC(=O)N1CC=C(c2c[nH]c3ncc(-c4ccc(CN5CCOCC5)s4)cc23)CC1 [Example 34, N-isopropyl-4-(5-(5-(morpholinomethyl)thiophen-2-yl)-1H-pyrrolo[2,3-b]pyridin-3-yl)-5,6-dihydropyridine-1(2H)-carboxamide] |
| 5.5 nM | CCC(C)NC(=O)N1CC=C(c2c[nH]c3ncc(-c4ccc(CN5CCOCC5)s4)cc23)CC1 (stereo not shown) [Example 43, N-(sec-butyl)-4-(5-(5-(morpholinomethyl)thiophen-2-yl)-1H-pyrrolo[2,3-b]pyridin-3-yl)-5,6-dihydropyridine-1(2H)-carboxamide] |
| 7.5 nM | CCC(C)NC(=O)N1CC=C(c2c[nH]c3ncc(-c4ccc(OC)c(OC)c4)cc23)CC1 (stereo not shown) [Example 44, N-(sec-butyl)-4-(5-(3,4-dimethoxyphenyl)-1H-pyrrolo[2,3-b]pyridin-3-yl)-5,6-dihydropyridine-1(2H)-carboxamide] |
| 32 nM | COc1ccc(-c2cnc3[nH]cc(C4=CCN(C(=O)NC5CCCC5)CC4)c3c2)cc1OC [Example 49, N-cyclopentyl-4-(5-(3,4-dimethoxyphenyl)-1H-pyrrolo[2,3-b]pyridin-3-yl)-5,6-dihydropyridine-1(2H)-carboxamide] |
| 51 nM | CS(=O)(=O)c1ccc(-c2cnc3[nH]cc(C4=CCN(C(=O)NC5CCCC5)CC4)c3c2)cc1 [Example 51, N-cyclopentyl-4-(5-(4-(methylsulfonyl)phenyl)-1H-pyrrolo[2,3-b]pyridin-3-yl)-5,6-dihydropyridine-1(2H)-carboxamide] |
| 66 nM | CCS(=O)(=O)c1ccc(-c2cnc3[nH]cc(C4=CCN(C(=O)NC5CCCC5)CC4)c3c2)cc1 [Example 53, N-cyclopentyl-4-(5-(4-(ethylsulfonyl)phenyl)-1H-pyrrolo[2,3-b]pyridin-3-yl)-3,6-dihydropyridine-1(2H)-carboxamide] |
| 31 nM | NS(=O)(=O)c1cccc(-c2cnc3[nH]cc(C4=CCN(C(=O)NC5CCCC5)CC4)c3c2)c1 [Example 57, N-cyclopentyl-4-(5-(3-sulfamoylphenyl)-1H-pyrrolo[2,3-b]pyridin-3-yl)-5,6-dihydropyridine-1(2H)-carboxamide] |
| 61 nM | NS(=O)(=O)c1ccc(-c2cnc3[nH]cc(C4=CCN(C(=O)NC5CCCC5)CC4)c3c2)cc1 [Example 58, N-cyclopentyl-4-(5-(4-sulfamoylphenyl)-1H-pyrrolo[2,3-b]pyridin-3-yl)-5,6-dihydropyridine-1(2H)-carboxamide] |
| 30 nM | CNS(=O)(=O)c1cccc(-c2cnc3[nH]cc(C4=CCN(C(=O)NC5CCCC5)CC4)c3c2)c1 [Example 59, N-cyclopentyl-4-(5-(3-(N-methylsulfamoyl)phenyl)-1H-pyrrolo[2,3-b]pyridin-3-yl)-5,6-dihydropyridine-1(2H)-carboxamide] |
| 38 nM | CNS(=O)(=O)c1ccc(-c2cnc3[nH]cc(C4=CCN(C(=O)NC5CCCC5)CC4)c3c2)cc1 [Example 60, N-cyclopentyl-4-(5-(4-(N-methylsulfamoyl)phenyl)-1H-pyrrolo[2,3-b]pyridin-3-yl)-5,6-dihydropyridine-1(2H)-carboxamide] |
| 86 nM | O=C(NC1CCCC1)N1CC=C(c2c[nH]c3ncc(-c4ccc(S(=O)(=O)N5CCOCC5)cc4)cc23)CC1 [Example 61, N-cyclopentyl-4-(5-(4-(morpholinosulfonyl)phenyl)-1H-pyrrolo[2,3-b]pyridin-3-yl)-5,6-dihydropyridine-1(2H)-carboxamide] |
| 91 nM | O=C(NC1CCCC1)N1CC=C(c2c[nH]c3ncc(-c4cccc(S(=O)(=O)N5CCOCC5)c4)cc23)CC1 [Example 62, N-cyclopentyl-4-(5-(3-(morpholinosulfonyl)phenyl)-1H-pyrrolo[2,3-b]pyridin-3-yl)-5,6-dihydropyridine-1(2H)-carboxamide] |
| 110 nM | O=C(NC1CCCC1)N1CC=C(c2c[nH]c3ncc(-c4ccc(CCN5CCOCC5)cc4)cc23)CC1 [Example 64, N-cyclopentyl-4-(5-(4-(2-morpholinoethyl)phenyl)-1H-pyrrolo[2,3-b]pyridin-3-yl)-5,6-dihydropyridine-1(2H)-carboxamide] |

Reference: US10239873B2, “7-azaindole or 4,7-diazaindole derivatives as IKKϵ epsilon and TBK1 inhibitor and pharmaceutical composition comprising same” (GREEN CROSS CORPORATION, priority 2015, dated 2019)
